Reference: patent US10479781B2, “Peptidyl nitril compounds as dipeptidyl peptidase I inhibitors” (Prozymex A/S, priority 2015, dated 2019)

How the values were obtained:
[1] = Test for metabolic stability (human liver microsomes); format: in vitro ADME; settings: pH 7.4; human liver microsomes 1.0 mg/mL, 1 mM NADPH, test compound 5 μM, 37° C.
Method: Test for Metabolic Stability
The test for metabolic stability was performed by Absorption System, Exton, Pa. 19341, USA.
The test compound (DPPI inhibitor) was dissolved in 100% DMSO at a concentration of 10 mM. The reaction mixture, consisted of Mouse or Human Liver Microsomes (1.0 mg/mL), 1 mM NADPH, 100 mM Potassium Phosphate, pH 7.4, 10 mM Magnesium Chloride and test compound at a concentration of 5 μM.
An aliquot of the reaction mixture (without cofactors) was incubated in a shaking water bath at 37° C. for 3 minutes. Another aliquot of the reaction mixture was prepared as the negative control. The test compound was added into both the reaction mixture and the negative control at a final concentration of 5 μM.
The reaction was initiated by the addition of NADPH to 1 mM (not into the negative controls) and then incubated in a shaking water bath at 37° C. Aliquots (100 μL) were withdrawn at 0, 10, 20, 30, and 60 minutes or at 0, 15, 30 and 60 minutes and combined with 900 μL of ice-cold 50/50 acetonitrile/dH2O to terminate the reaction. A control (testosterone) was run simultaneously with the test compound in a separate reaction. […] The elimination half-lives associated with the disappearance of the test and control compounds were determined to compare their relative metabolic stability.

[2] = target: T1, DPPI (Homo sapiens, UniProt P53634); assay: Cell based DPPI inhibition assay 2; set-up: endogenous in cells; host or cells: U937 cells; settings: neutrophil elastase activity in U937 cells grown 48 hours with inhibitor
Method: Cell Based DPPI Inhibition Assay 2
Using the cell based assay described below, the biological activity of the compounds of the invention or other DPPI inhibitors may be determined.
Neutrophil elastase enzymatic activities in U937 cells grown in the presence of DPPI inhibitors were measured by methods modified from Méthot N; Rubin J; Guay D; Beaulieu C; Ethier D; Reddy T J; Riendeau D and Percival M D (2007) J Biol Chem, 282, 20836-20846.
U937 cells were propagated in culture media (RPMI 1640, supplemented with 10% FBS, 10 mM Hepes, 1 mM sodium pyrovate, 100 units/ml of each of penicillin and streptomycin). Cells were seeded in 12-well plates at ≈0.2×10^6 cells/ml in volumes of 1.5 ml per well in the presence of no or increasing concentrations of DPPI inhibitor. 12 points in duplicate in the range of 0.01 nM to 10 μM inhibitor were tested. […]
The activity of neutrophil elastase was determined by measuring the enzymatic release of chromogenic p-nitroaniline from the substrate MetOSuc-Ala-Ala-Pro-Val-pNA, which leads to an increase in absorbance at 405 nm. Assays were carried out in 96-well plates in a final volume of 200 μL at 37° C., and absorbance was measured 8 times during 21 minutes using a plate reader. IC50 was determined using a 4-parameter logistic equation in a non-linear curve fitting routine.

[3] = target: T1, DPPI; assay: Human DPPI inhibition assay 2; format: biochemical; set-up: purchased UNIZYME Laboratories A/S; settings: substrate Gly-Phe-paranitroanilide 750 μM, pH 4.5, 37° C.
Method: Human DPPI Inhibition Assay 2
Using this assay, the IC50 value of the compound of the invention may be determined using Gly-Phe-paranitroanilide as a DPPI specific substrate.
Assay buffer: 20 mM citric acid (2.1 g citric acid), 150 mM NaCl (4.4 g NaCl) and 2 mM EDTA (370 mg EDTA) was dissolved in 500 mL H2O, and pH was adjusted to 4.5 with HCl.
Substrate: Gly-Phe-paranitroanilide (Sigma Aldrich; Cat. No G0142) was used as the substrate for determination of IC50 values. Km was 2.2 mM. The substrate was solubilized in dimethylformamid to give a 0.2-0.5 M stock solution, which was then further diluted with stirring in assay buffer to a final concentration of 1 mM.
DPPI: Human DPPI (obtained from UNIZYME Laboratories A/S, DK-2970 Hørsholm, Denmark) was stored at −20° C. in a buffer containing 2.5 mM Na-phosphate, 150 mM NaCl, 2 mM cysteamine, 50% glycerol, pH 7.0 at a concentration of 2.2 mg/mL (≈12 μM). This stock solution was diluted 800-3200 times in assay buffer to a concentration of about 4-15 nM.
Assay conditions: The assay was performed in 96-well plates. […] The absorption was measured at 405 nm at 37° C. for every 90 seconds for 12 minutes or every 20 seconds for 4 minutes. […] IC50 was determined using a 4-parameter logistic equation in a non-linear curve fitting routine.

T1 sequence (P53634 231-394 limits assumed): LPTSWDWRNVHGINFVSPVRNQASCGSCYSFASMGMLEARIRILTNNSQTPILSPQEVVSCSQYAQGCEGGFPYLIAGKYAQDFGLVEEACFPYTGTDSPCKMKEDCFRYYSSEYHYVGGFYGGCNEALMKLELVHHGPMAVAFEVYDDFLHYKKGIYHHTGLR
T1 sequence (P53634 25-134 limits assumed): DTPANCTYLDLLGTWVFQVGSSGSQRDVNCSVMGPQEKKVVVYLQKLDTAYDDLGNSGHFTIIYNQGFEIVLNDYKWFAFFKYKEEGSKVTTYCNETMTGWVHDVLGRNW
T1 sequence (P53634 395-463 limits assumed): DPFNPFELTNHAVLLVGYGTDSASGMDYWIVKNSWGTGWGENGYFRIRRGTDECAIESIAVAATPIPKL

half-life at 5 μM [1]: > 2 h
IC50 [2]: ~2.5 nM
IC50 [3]: ~6 nM
SMILES: CN1CCN(Cc2ccc(-c3ccc(C[C@@H](C#N)NC(=O)C4(N)CCOCC4)c(F)c3)cc2)CC1 [PZ1101, (S)-4-amino-N-(1-cyano-2-(3-fluoro-4′-((4-methylpiperazin-1-yl)methyl)-[1,1′-biphenyl]-4-yl)ethyl)tetrahydro-2H-pyran-4-carboxamide]
